Test results published in ChEMBL document CHEMBL4732204, “Multitargeting application of proline-derived peptidomimetics addressing cancer-related human matrix metalloproteinase 9 and carbonic anhydrase II” (Eur J Med Chem, 2021).

Key:
[1] = biological target: Carbonic anhydrase 12 (Homo sapiens, UniProt O43570); experiment: Inhibition of human CA12 incubated for 15 mins by stopped-flow CO2 hydration kinetic assay based Cheng-Prusoff equation analysis
[2] = biological target: Carbonic anhydrase 2 (Homo sapiens, UniProt P00918); experiment: Inhibition of human CA2 incubated for 15 mins by stopped-flow CO2 hydration kinetic assay based Cheng-Prusoff equation analysis
[3] = biological target: Carbonic anhydrase 1 (Homo sapiens, UniProt P00915); experiment: Inhibition of human CA1 incubated for 15 mins by stopped-flow CO2 hydration kinetic assay based Cheng-Prusoff equation analysis
[4] = biological target: Matrix metalloproteinase-9 (Homo sapiens, UniProt P14780); experiment: Inhibition of MMP9 (unknown origin) using Mca-Lys-Pro-Leu-Gly-Leu-Dpa-Ala-Arg-NH2 as substrate incubated for 5 min followed by substrate addition and measured for 30 mins by fluorescence based assay
[5] = biological target: 72 kDa type IV collagenase (Homo sapiens, UniProt P08253)
[6] = biological target: Carbonic anhydrase 9 (Homo sapiens, UniProt Q16790); experiment: Inhibition of human CA9 incubated for 15 mins by stopped-flow CO2 hydration kinetic assay based Cheng-Prusoff equation analysis

Carbonic anhydrase 12, sequence (O43570 whole entry): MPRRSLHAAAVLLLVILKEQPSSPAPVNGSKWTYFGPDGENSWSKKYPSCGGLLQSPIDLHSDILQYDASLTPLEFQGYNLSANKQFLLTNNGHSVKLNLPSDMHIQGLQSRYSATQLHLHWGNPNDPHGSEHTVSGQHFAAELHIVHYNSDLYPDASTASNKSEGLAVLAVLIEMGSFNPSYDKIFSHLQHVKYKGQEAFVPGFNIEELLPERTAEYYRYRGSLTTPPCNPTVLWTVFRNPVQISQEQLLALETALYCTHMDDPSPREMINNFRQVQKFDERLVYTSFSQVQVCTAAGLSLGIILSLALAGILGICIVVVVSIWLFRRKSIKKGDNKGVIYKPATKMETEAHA
Matrix metalloproteinase-9, sequence (P14780 whole entry): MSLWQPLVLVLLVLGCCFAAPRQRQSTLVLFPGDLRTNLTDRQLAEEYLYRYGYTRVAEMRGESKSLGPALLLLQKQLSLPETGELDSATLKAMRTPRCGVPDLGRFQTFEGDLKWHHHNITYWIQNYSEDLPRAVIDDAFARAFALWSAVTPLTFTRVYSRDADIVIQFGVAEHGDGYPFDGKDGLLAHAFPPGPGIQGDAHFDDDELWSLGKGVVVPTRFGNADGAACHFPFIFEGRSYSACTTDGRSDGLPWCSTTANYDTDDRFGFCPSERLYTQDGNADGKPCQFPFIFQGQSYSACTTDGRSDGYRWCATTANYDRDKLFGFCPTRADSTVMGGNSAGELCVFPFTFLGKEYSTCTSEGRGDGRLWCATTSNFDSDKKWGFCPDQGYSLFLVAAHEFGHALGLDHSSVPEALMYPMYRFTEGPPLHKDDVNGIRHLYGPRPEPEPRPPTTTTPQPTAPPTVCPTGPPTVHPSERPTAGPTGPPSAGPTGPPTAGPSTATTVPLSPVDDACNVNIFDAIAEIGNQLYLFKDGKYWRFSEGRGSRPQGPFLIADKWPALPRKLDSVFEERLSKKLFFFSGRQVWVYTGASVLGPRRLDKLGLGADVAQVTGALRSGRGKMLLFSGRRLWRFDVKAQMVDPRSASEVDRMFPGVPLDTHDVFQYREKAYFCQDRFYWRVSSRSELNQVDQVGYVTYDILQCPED
Carbonic anhydrase 1, sequence (P00915 whole entry): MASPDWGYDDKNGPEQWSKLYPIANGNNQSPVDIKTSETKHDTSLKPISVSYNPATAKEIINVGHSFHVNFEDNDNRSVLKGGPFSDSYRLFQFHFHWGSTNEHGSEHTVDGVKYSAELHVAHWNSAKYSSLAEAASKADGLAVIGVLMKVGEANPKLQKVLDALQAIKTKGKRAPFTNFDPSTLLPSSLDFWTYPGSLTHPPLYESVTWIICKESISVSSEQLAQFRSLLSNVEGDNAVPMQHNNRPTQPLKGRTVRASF
72 kDa type IV collagenase, sequence (P08253 whole entry): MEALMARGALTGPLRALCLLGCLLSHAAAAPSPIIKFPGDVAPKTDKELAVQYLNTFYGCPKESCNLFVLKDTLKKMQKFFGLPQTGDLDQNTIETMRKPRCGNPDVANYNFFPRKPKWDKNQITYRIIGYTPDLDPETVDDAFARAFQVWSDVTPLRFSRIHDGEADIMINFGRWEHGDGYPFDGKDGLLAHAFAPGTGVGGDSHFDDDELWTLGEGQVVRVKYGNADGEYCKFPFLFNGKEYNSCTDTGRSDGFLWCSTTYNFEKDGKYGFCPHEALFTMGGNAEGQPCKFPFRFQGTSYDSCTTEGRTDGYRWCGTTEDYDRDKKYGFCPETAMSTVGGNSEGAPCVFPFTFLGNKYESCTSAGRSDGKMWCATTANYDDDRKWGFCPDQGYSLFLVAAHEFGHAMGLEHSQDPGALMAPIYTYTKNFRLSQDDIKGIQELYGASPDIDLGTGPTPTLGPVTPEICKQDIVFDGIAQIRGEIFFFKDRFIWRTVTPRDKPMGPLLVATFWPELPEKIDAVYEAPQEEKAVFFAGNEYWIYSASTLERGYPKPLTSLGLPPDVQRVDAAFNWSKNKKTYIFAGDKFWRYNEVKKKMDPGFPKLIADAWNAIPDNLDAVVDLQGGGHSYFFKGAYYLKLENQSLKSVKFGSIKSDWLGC

Row | SMILES | Ki [1] [µM] | Ki [2] [µM] | Ki [3] [µM] | Ki [4] [µM] | Ki [5] [nM] | Ki [6] [µM]
1 | O=C(NO)[C@H]1C[C@H](NS(=O)(=O)c2ccc(-c3ccccc3)cc2)CN1S(=O)(=O)c1ccc(-c2ccccc2)cc1 | 8.82 | > 100 | > 100 | 0.294 | 54 | 21.4
2 | O=C(NO)[C@H]1C[C@@H](NS(=O)(=O)c2ccc(-c3ccccc3)cc2)CN1S(=O)(=O)c1ccc(Cl)c(Cl)c1 | 67.2 | 24.8 | > 100 | 0.541 | > 10000 | > 100
3 | O=C(N[C@@H]1C[C@H](C(=O)NO)N(S(=O)(=O)c2ccc(Cl)c(Cl)c2)C1)c1cccs1 | – | > 100 | > 100 | 0.091 | 131 | –
4 | CCCCCCO[C@H]1CCN(S(=O)(=O)c2ccc(Cl)cc2)[C@H]1C(=O)NO | – | > 100 | > 100 | > 10 | > 10000 | –
5 | COc1ccc(S(=O)(=O)N2C[C@H](NC(=O)C(C)(C)C)C[C@@H]2C(=O)NO)cc1 | – | > 100 | > 100 | 0.123 | 26 | –
6 | O=C(NO)[C@H]1C[C@@H](n2cc(-c3ccccc3)nn2)CN1S(=O)(=O)c1ccc(Cl)c(Cl)c1 | – | > 100 | > 100 | > 10 | – | –
7 | COc1ccc(S(=O)(=O)N2C[C@@H](NS(=O)(=O)c3ccc(-c4ccccc4)cc3)C[C@@H]2C(=O)O)cc1 | 9.19 | 6.13 | 8.4 | > 100 | > 100000 | 20.7
8 | O=C(NO)[C@H]1C[C@H](NS(=O)(=O)c2ccc(-c3ccccc3)cc2)CN1S(=O)(=O)c1ccc(Cl)c(Cl)c1 | 98.5 | 6.68 | > 100 | 0.057 | 328 | > 100
9 | O=C(NO)[C@H]1C[C@H](NS(=O)(=O)c2ccc(-c3ccccc3)cc2)CN1S(=O)(=O)c1ccc(OC(F)(F)F)cc1 | > 100 | > 100 | > 100 | > 100 | > 100000 | > 100
10 | O=C(NO)[C@H]1C[C@H](NS(=O)(=O)c2ccc(-c3ccccc3)cc2)CN1S(=O)(=O)c1ccc([N+](=O)[O-])cc1 | > 100 | 44.8 | 52.9 | > 100 | – | 23.3
11 | COc1ccc(S(=O)(=O)N2C[C@@H](NS(=O)(=O)c3ccc(-c4ccccc4)cc3)C[C@@H]2C(=O)NO)cc1 | > 100 | > 100 | > 100 | 0.482 | 406 | > 100
12 | O=C(N[C@H]1C[C@H](C(=O)NO)N(S(=O)(=O)c2ccc(Cl)c(Cl)c2)C1)c1cccs1 | – | > 100 | > 100 | > 10 | > 10000 | –
13 | O=C(NO)[C@H]1C[C@H](n2cc(-c3ccccc3)nn2)CN1S(=O)(=O)c1ccc(Cl)c(Cl)c1 | – | > 100 | > 100 | 1.55 | – | –
14 | O=C(/C=C/c1ccco1)N[C@H]1C[C@H](C(=O)NO)N(S(=O)(=O)c2ccc(Cl)c(Cl)c2)C1 | – | > 100 | > 100 | 0.324 | – | –

Results, then the compound that gave them:

Row | Ki [1] [µM] | Ki [2] [µM] | Ki [3] [µM] | Ki [4] [µM] | Ki [5] [nM] | Ki [6] [µM] | SMILES
15 | – | > 100 | > 100 | > 10 | – | – | O=C(NO)[C@H]1[C@@H](OCc2ccccc2)CCN1S(=O)(=O)c1ccc(Cl)c(Cl)c1
16 | – | > 100 | > 100 | 0.00011 | 0.087 | – | O=C(Nc1ccc(S(=O)(=O)N2CCC[C@@H]2C(=O)NO)cc1)c1ccc([N+](=O)[O-])cc1
17 | – | > 100 | > 100 | 0.473 | 2.16 | – | O=C(Nc1ccc(S(=O)(=O)N2CCC[C@@H]2C(=O)NO)cc1)OCc1ccccc1
18 | – | > 100 | > 100 | 0.00083 | 0.25 | – | O=C(NO)[C@H]1CCCN1S(=O)(=O)c1ccc(C#Cc2ccccc2)cc1
19 | – | > 100 | > 100 | 0.02 | – | – | COc1ccc(S(=O)(=O)N2CCC[C@@H]2C(=O)NO)cc1
20 | – | > 100 | > 100 | 0.032 | 0.044 | – | O=C(Nc1ccc(C(=O)Nc2ccc(S(=O)(=O)N3CCC[C@@H]3C(=O)NO)cc2)cc1)OCc1ccccc1
21 | 47 | > 100 | > 100 | 3.88 | 2260 | > 100 | CS(=O)(=O)N1C[C@@H](NS(=O)(=O)c2ccc(-c3ccccc3)cc2)C[C@@H]1C(=O)NO
